Values of other authors, collected in patent US11013684B2, “Body fluid expanders comprising N-substituted aminosulfonic acid buffers” (AQIX, Ltd., priority 2007, dated 2021).

What was measured:
cultured mammalian cells = settings: long term studies
[1] = for −ΔpKa/° C.: aqueous solution, 20° C.

SMILES	toxicity to cultured mammalian cells (cultured mammalian cells)	−ΔpKa/° C. [1]	pKa @ 20° C. ([1]; aqueous solution at 20° C.)
O=S(=O)(O)CCN(CCO)CCO [BES, N,N-bis (2-hydroxyethyl)-2-aminoethanesulfonic acid]	non-toxic	0.016	
O=S(=O)(O)CCN1CCN(CCS(=O)(=O)O)CC1 [PIPES, piperazine-N,N′-bis(2-ethanesulfonic acid)]		0.009	6.80
O=C(O)CN(CCO)CCO [BICINE, N,N-bis (2-hydroxyethyl) glycine]		0.018	
O=C(O)CNC(CO)(CO)CO [TRICINE, N-tris(hydroxymethyl) methylglycine]		0.021	
